A short description of series [1]: Cytotoxicity in HepG2 cells, Resazurin viability assay. Conditions: human, HepG2 cells, HepG2 4 days CC50 (μM), incubated for 4 days, Resazurin assay. (The colour change of resazurin is a common sign of viable cells or microbes.)
The subject of series [2] is HBV. As to the kind of experiment: Anti-HBV activity, HepG2.117 inducibly HBV producing cell line (Tet-off), intracellular HBV DNA by realtime PCR. In kind it is cell-based. Conditions: Hepatitis B virus, HepG2.117, 72 h, HepG2.117 cells, 3 days of treatment, intracellular HBV DNA; read-out: HepG2 117 EC50.
Series [3] has as its system HBV. As to the kind of experiment: Anti-HBV activity, HepG2.2.15 stable transfected cell line, HBV DNA from secreted virions by realtime PCR. The format is cell-based. Conditions: Hepatitis B virus, HepG2.2.15, 144 h, HepG2.2.15 cells, 6 days of treatment, HBV DNA from secreted virions; read-out: HepG2 2.15 EC50.

The term CC50 denotes the concentration at which the toxic effect on the cells reaches its halfway point. A high value points to better tolerance by the cells. The term EC50 denotes the midpoint of the concentration-response curve. The molecule `C[C@@H](NS(=O)(=O)c1cn(C)c(C(=O)Nc2ccc(F)c(Cl)c2F)c1F)C(F)(F)F` [Compound 185, N-(3-Chloro-2,4-difluorophenyl)-3-fluoro-1-methyl-4-{[(1R)-2,2,2-trifluoro-1-methylethyl]sulfamoyl}-1H-pyrrole-2-carboxamide] returned a CC50 at 4 days in series [1] greater than 25 µM. Also, the concentration for a half-maximal effect (EC50) stood at 0.005 µM in the series on HBV [2] and 0.006 µM with HBV [3].
The like results for `Cc1cc(F)cc(NC(=O)c2cc(S(=O)(=O)N[C@H]3CCOC3)cn2C)c1` [Compound 32, N-(3-fluoro-5-methyl-phenyl)-1-methyl-4-[[(3S)-tetrahydrofuran-3-yl]-sulfamoyl]pyrrole-2-carboxamide] were, in that order, greater than 25 µM, 0.34 µM and 0.18 µM.
`Cn1cc(S(=O)(=O)NC2(C(F)(F)F)CCCC2)c(F)c1C(=O)Nc1ccc(F)c(C#N)c1` [Compound 281, N-(3-cyano-4-fluoro-phenyl)-3-fluoro-1-methyl-4-[[1-(trifluoro-methyl)cyclopentyl]sulfamoyl]pyrrole-2-carboxamide] had a 50% cytotoxic concentration (CC50) at 4 days in series [1] greater than 25 µM. Moreover, the EC50 was 0.007 µM in the series with HBV [2] and less than 0.004 µM in the series with HBV [3].
Taken in the same sequence, the figures for `CCn1cc(S(=O)(=O)N[C@H]2CCOC2)cc1C(=O)Nc1ccc(F)c(C)c1` [Compound 30, 1-ethyl-N-(4-fluoro-3-methyl-phenyl)-4-[[(3S)-tetrahydrofuran-3-yl]-sulfamoyl]pyrrole-2-carboxamide] were greater than 25 µM, 0.33 µM and 0.45 µM.
Taken in the same sequence, the figures for `C[C@@H](NS(=O)(=O)c1cn(C)c(C(=O)Nc2ccc(F)cc2C#N)c1Cl)C(F)(F)F` [Compound 273, 3-chloro-N-(2-cyano-4-fluoro-phenyl)-1-methyl-4-[[(1R)-2,2,2-trifluoro-1-methyl-ethyl]sulfamoyl]pyrrole-2-carboxamide] were greater than 25 µM, 0.7 µM and 0.42 µM.
In the case of `Cn1cc(S(=O)(=O)NCC(F)F)cc1C(=O)Nc1ccc(F)c(Cl)c1` [Compound 128, N-(3-Chloro-4-fluorophenyl)-4-[(2,2-difluoroethyl)sulfamoyl]-1-meth-1H-pyrrole-2-carboxamide], the CC50 at 4 days in series [1] is greater than 25 µM. The EC50 in the series with HBV [2] turned out to be 0.09 µM; in the series with HBV [3], 0.15 µM.
Taken in the same sequence, the figures for `[2H]c1cc(F)c(C)c([2H])c1NC(=O)c1cc(S(=O)(=O)NC(C([2H])([2H])[2H])(C([2H])([2H])[2H])C([2H])([2H])[2H])cn1C` [Compound 70, N-(2,6-dideuterio-4-fluoro-3-methyl-phenyl)-1-methyl-4-[[2,2,2-trideuterio-1,1-bis(trideuteriomethyl)ethyl]sulfamoyl]pyrrole-2-carboxamide] were greater than 25 µM, 0.04 µM and 0.02 µM.
Taken in the same sequence, the figures for `C[C@@H](NS(=O)(=O)c1cc(C(=O)Nc2ccc(F)c(Cl)c2F)n(C)c1)C(F)(F)F` [Compound 120, N-(3-Chloro-2,4-difluorophenyl)-1-methyl-4-{[(1R)-2,2,2-trifluoro-1-methylethyl]sulfamoyl}-1H-pyrrole-2-carboxamide] were greater than 25 µM, 0.03 µM and 0.03 µM.
The molecule `CCC(C)(NS(=O)(=O)c1cc(C(=O)Nc2cc(F)c(F)c(Cl)c2)n(C)c1)C(F)(F)F` (single isomer, unassigned) [Compound 165a, N-(3-chloro-4,5-difluoro-phenyl)-1-methyl-4-[[1-methyl-1-(trifluoro-methyl)propyl]sulfamoyl]pyrrole-2-carboxamide] came in with a CC50 at 4 days in series [1] of 9.3 µM. Also, the EC50 in the series on HBV [2] worked out at 0.04 µM; in the series with HBV [3], 0.15 µM.
Consider `C[C@H](NS(=O)(=O)c1cc(C(=O)Nc2ccc(F)c(Br)c2F)n(C)c1)C(F)(F)F` [Compound 155, N-(3-Bromo-2,4-difluorophenyl)-1-methyl-4-{[(1S)-2,2,2-trifluoro-1-methylethyl]sulfamoyl}-1H-pyrrole-2-carboxamide], for which the CC50 at 4 days in series [1] is greater than 25 µM. The results for the concentration for a half-maximal effect (EC50) with HBV [2] and with HBV [3] were 0.05 µM and 0.03 µM, respectively.
Taken in the same sequence, the figures for `CC(C)n1cc(S(=O)(=O)N[C@H](C)C(F)(F)F)c(Cl)c1C(=O)Nc1ccc(F)c(C#N)c1` [Compound 291, 3-chloro-N-(3-cyano-4-fluoro-phenyl)-1-isopropyl-4-[[(1R)-2,2,2-trifluoro-1-methyl-ethyl]sulfamoyl]pyrrole-2-carboxamide] were greater than 25 µM, 0.39 µM and 0.42 µM.
Taken in the same sequence, the figures for `Cc1cc(NC(=O)c2cc(S(=O)(=O)NC3(CCO)COC3)cn2C)ccc1F` [Compound 14, N-(4-fluoro-3-methyl-phenyl)-4-[[3-(2-hydroxyethyl)oxetan-3-yl]sulfamoyl]-1-methyl-pyrrole-2-carboxamide] were greater than 25 µM, 0.02 µM and 0.04 µM.
The like results for `C[C@@H](NS(=O)(=O)c1cn(C)c(C(=O)Nc2cccc(Br)c2)c1Cl)C(F)(F)F` [Compound 250, N-(3-Bromophenyl)-3-chloro-1-methyl-4-{[(1R)-2,2,2-trifluoro-1-methylethyl]sulfamoyl}-1H-pyrrole-2-carboxamide] were, in that order, 20 µM, 0.4 µM and 0.007 µM.
For `Cc1cc(NC(=O)c2cc(S(=O)(=O)NC3(C)CCOC3)cn2C)ccc1F` (stereo not drawn) [Compound 11, N-(4-fluoro-3-methyl-phenyl)-1-methyl-4-[(3-methyltetrahydrofuran-3-yl)sulfamoyl]pyrrole-2-carboxamide], the half-maximal cytotoxic concentration (CC50) at 4 days in series [1] was greater than 25 µM. Besides, the values for the EC50 in the series on HBV [2] and in the series with HBV [3] were 0.02 µM and 0.03 µM, respectively.
The like results for `Cn1cc(S(=O)(=O)NC2(C)COC2)c(F)c1C(=O)Nc1ccc(F)c(C#N)c1` [Compound 113, N-(3-cyano-4-fluoro-phenyl)-3-fluoro-1-methyl-4-[(3-methyloxetan-3-yl)sulfamoyl]pyrrole-2-carboxamide] were, in that order, greater than 25 µM, 0.02 µM and 0.03 µM.
Taken in the same sequence, the figures for `Cn1cc(S(=O)(=O)NCC(F)F)cc1C(=O)Nc1ccc(F)c(Br)c1` [Compound 127, N-(3-Bromo-4-fluorophenyl)-4-[(2,2-difluoroethyl)sulfamoyl]-1-methyl-1H-pyrrole-2-carboxamide] were greater than 25 µM, 0.19 µM and 0.05 µM.
The like results for `Cc1cc(NC(=O)c2cc(S(=O)(=O)NC3(CO)COC3)cn2C)ccc1F` [Compound 10, N-(4-fluoro-3-methyl-phenyl)-4-[[3-(hydroxymethyl)oxetan-3-yl]sulfamoyl]-1-methyl-pyrrole-2-carboxamide] were, in that order, greater than 25 µM, 0.08 µM and 0.11 µM.
In turn, `Cn1cc(S(=O)(=O)NC2(C)COC2)cc1C(=O)Nc1ccc(F)c(C(C)(F)F)c1` [Compound 161, N-[3-(1,1-Difluoroethyl)-4-fluorophenyl]-1-methyl-4-[(3-methyloxetan-3-yl)sulfamoyl]-1H-pyrrole-2-carboxamide] returned a cytotoxic concentration (CC50) at 4 days in series [1] greater than 25 µM. Moreover, the EC50 in the series with HBV [2] was 0.91 µM; in the series with HBV [3], greater than 1 µM.
Taken in the same sequence, the figures for `Cn1cc(S(=O)(=O)NC2(C)COC2)c(Cl)c1C(=O)Nc1ccc(F)c(C#N)c1` [Compound 306, 3-chloro-N-(3-cyano-4-fluoro-phenyl)-1-methyl-4-[(3-methyloxetan-3-yl)sulfamoyl]-pyrrole-2-carboxamide] were greater than 25 µM, 0.06 µM and 0.03 µM.
The like results for `[2H]c1cc(F)c(C)c([2H])c1NC(=O)c1cc(S(=O)(=O)NC(C)(C)C)cn1C` [Compound 67, 4-(tert-butylsulfamoyl)-N-(2,6-dideuterio-4-fluoro-3-methyl-phenyl)-1-methyl-pyrrole-2-carboxamide] were, in that order, greater than 25 µM, 0.03 µM and 0.02 µM.
The like results for `Cn1cc(S(=O)(=O)NC(C)(C)C)cc1C(=O)Nc1cccc(Cl)c1F` [Compound 193, 4-(tert-Butylsulfamoyl)-N-(3-chloro-2-fluorophenyl)-1-methyl-1H-pyrrole-2-carboxamide] were, in that order, greater than 25 µM, 0.11 µM and 0.14 µM.
`Cn1cc(S(=O)(=O)NCC(F)(F)F)cc1C(=O)Nc1ccc(F)c(Br)c1` [Compound 135, N-(3-Bromo-4-fluorophenyl)-1-methyl-4-[(2,2,2-trifluoroethyl)sulfamoyl]-1H-pyrrole-2-carboxamide]: in series [1], the CC50 at 4 days is greater than 25 µM. In addition, the half-maximal effective concentration (EC50) with HBV [2] was 0.26 µM; in the series on HBV [3] it was 0.02 µM.
Taken in the same sequence, the figures for `CC[C@@H](C)NS(=O)(=O)c1cc(C(=O)Nc2cc(C)c(F)c(F)c2)n(C)c1` [Compound 34, N-(3,4-difluoro-5-methyl-phenyl)-1-methyl-4-[[(1R)-1-methylpropyl]-sulfamoyl]pyrrole-2-carboxamide] were greater than 25 µM, less than 0.02 µM and 0.03 µM.
The molecule `C[C@H](NS(=O)(=O)c1cc(C(=O)Nc2cccc(C#N)c2)n(C)c1)C(F)(F)F` [Compound 197, N-(3-Cyanophenyl)-1-methyl-4-{[(1S)-2,2,2-trifluoro-1-methylethyl]-sulfamoyl}-1H-pyrrole-2-carboxamide] displayed a CC50 at 4 days in series [1] greater than 25 µM. The concentration giving a half-maximal response (EC50) in the series with HBV [2] came to 0.09 µM; in the series on HBV [3] it was 0.12 µM.
Taken in the same sequence, the figures for `Cc1cc(NC(=O)c2cc(S(=O)(=O)NC(C)C)cn2C)cc(F)c1F` [Compound 33, N-(3,4-difluoro-5-methyl-phenyl)-4-(isopropylsulfamoyl)-1-methyl-pyrrole-2-carboxamide] were greater than 25 µM, 0.04 µM and 0.03 µM.

Values taken from patent US9884818B2, “Sulphamoylpyrrolamide derivatives and the use thereof as medicaments for the treatment of hepatitis B” (Janssen Sciences Ireland UC, priority 2013, dated 2018).
